# According to patent US20120052130A1, “GPR 119 MODULATORS” (Pfizer Inc., priority 2009, published 2012):
# Target: T1, human GPR119 (Homo sapiens, UniProt Q8TDV5)
# T1 sequence (Q8TDV5 1-335): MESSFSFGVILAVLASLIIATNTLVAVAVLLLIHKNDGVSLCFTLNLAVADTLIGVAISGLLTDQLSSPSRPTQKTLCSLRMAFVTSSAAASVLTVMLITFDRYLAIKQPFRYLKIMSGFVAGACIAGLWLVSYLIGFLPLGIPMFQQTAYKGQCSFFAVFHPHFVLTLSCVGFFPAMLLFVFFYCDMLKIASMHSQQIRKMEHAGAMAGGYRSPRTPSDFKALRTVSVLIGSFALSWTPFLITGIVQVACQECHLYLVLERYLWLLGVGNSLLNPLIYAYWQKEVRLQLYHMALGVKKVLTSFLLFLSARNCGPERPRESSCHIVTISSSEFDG
# Test: β-lactamase reporter functional assay for GPR119 agonists (hGPR119 HEK293-CRE beta-lactamase cells)
# Type: cell-based
# Design: host or cells: hGPR119-HEK293-CRE-beta-lactamase cells
# Conditions: hGPR119 HEK293-CRE beta-lactamase cells; each line is a separate determination; read-out: Human B-lactamase Functional EC50
# Protocol: The assay for GPR119 agonists utilizes a cell-based (hGPR119HEK293-CRE beta-lactamase) reporter construct where agonist activation of human GPR119 is coupled to beta-lactamase production via a cyclic AMP response element (CRE). GPR119 activity is then measured utilizing a FRET-enabled beta-lactamase substrate, CCF4-AM (Live Blazer FRET-B/G Loading kit, Invitrogen cat #K1027). […] Fluorescence was measured on an EnVision fluorimetric plate reader, excitation 405 nm, emission 460 nm/535 nm. EC50 determinations were made from agonist-response curves analyzed with a curve fitting program using a 4-parameter logistic dose-response equation.
smiles,measurement,value
"Cc1c(O[C@@H]2[C@@H]3COC[C@H]2CN(C(=O)OC(C)C)C3)ncnc1N1CCc2cc(S(C)(=O)=O)ccc21 [Example 23, Isopropyl (9-syn)-9-({5-methyl-6-[5-(methylsulfonyl)-2,3-dihydro-1H-indol-1-yl]pyrimidin-4-yl}oxy)-3-oxa-7-azabicyclo[3.3.1]nonane-7-carboxylate]",EC50,0.0647 µM
